Assay results taken from US20020082213A1 (priority 1996, published 2002).

How the values were obtained:
[1] = test system: female albino mice (Ibm: MORO); assay: Operant conflict test for anxiolytic effect; type: in vivo; conditions: 10 mg/kg oral, 30 minutes prior to testing
LC132 receptors = conditions: cited from earlier work

Row | Compound | punished lever-pressing [1] | unpunished responding [1] | inhibition of cyclic AMP formation (LC132 receptors)
1 | CN1C(=O)CN=C(c2ccccc2)c2cc(Cl)ccc21 [diazepam] | enhanced punished lever-pressing | some reduction of unpunished responding | 
2 | dynorphin A |  |  | weakly inhibited
